Data from patent US20220087990A1, “APPLICATION OF RIFAMYCIN-QUINOLIZIDONE CONJUGATE MOLECULE AND PHARMACEUTICALLY ACCEPTABLE SALT THEREOF” (priority 2019, published 2022).
Read-outs that look alike come from different tables or passages of the source.

How the values were obtained:
Assay type in all cases: in vivo, Staphylococcus aureus; Balb/c mice
[1] = tested on: Staphylococcus aureus CB1857 (parC^S80F+norA^up); assay: Mouse subcutaneous catheter implant biofilm infection model
Procedure: (§1) Test Drug: rifamycin-quinolizidone conjugate molecule I was provided by TenNor Therapeutics, Ltd., and was stored at −20° C. Other test compounds and reagents are commercially available. […] For remaining test agents, aqueous vehicles of sterile water, 5% sodium bicarbonate or 0.9% normal saline were added to the compound shown in formula I. The rifamycin-quinolizidone conjugate molecule formulation shown in formula I was administered at 30 mg/kg.
(§2) Bacteria: The bacteria used were biofilm forming Staphylococcus aureus strains. These were a wild-type parent biofilm strain CB1406 and it's isogenic fluoroquinoline-resistant derivatives CB1823 (parC^S80F), CB1840 (norA^up) and CB1857 (parC^S80F30 norA^up). Minimal inhibit concentrations (MICs) were determined by broth microdilution assays recommended by CLSI.
(§3) Test animals: female 5-6 week old Balb/c mice were used in this embodiment. The mice had free access to food and water during the course of this test and animal procedures were compliant with UNTHSC Institutional Animal Care and Use Committee (IACUC) guidelines.
(§4) In vitro preparation of colonized implants: Teflon venous catheters (14-Guage AbboCath-T #271-1000 or Braun Introcan #425 2594) were cut into 1 cm segments, sterilized by soaking in 70% ethanol for 15 minutes, dried under UV light for 20 minutes followed by aseptic placement in sterile 1.5 mL polypropylene tubes warmed to 37° C. Inocula were prepared by growing overnight broth cultures, which were diluted in 1:10 in tryptic soy broth plus 0.25% glucose (TSBG) and incubated with 250 rpm at 37° C. for 1 hour. Cultures were diluted to 1.0E+0^6 CFU/mL in 37° C. TSBG, 1 mL was added to each catheter tube, incubated at 37° C. without shaking for an additional 2.5 hours, and then cooled to 18° C. to slow growth until implant surgeries were completed.
(§5) Formation and treatments of subcutaneous implant infections: the mice were anesthetized with isoflurane vapors (4 L/min). Each flank was shaved, sterilized with ethanol/betadine and two 3 mm incisions made. Subcutaneous pockets were excavated, then catheter segments pre-colonized with adherent bacteria inserted into the pockets closed with surgical staples. The mice were returned to their cages and regularly monitored for adverse reactions. Treatments were initiated one week post surgery (bacterial colonization and biofilm formation) twice daily by intraperitoneal injections (IP) for 7 days, 7 days treatment plus a 7 days rebound period with no treatment and 7 days treatment plus 7 days rebound+7 days re-treatment with 5 mice (total 10 implants) per treatment or sampling group. Implant-associated bacteria were monitored by sampling colonized catheter segments during the course of implant surgeries and at regular intervals for up to 28 days post infection.
(§6) Sampling of infected implants: infected mice were euthanized by CO2 inhalation, then flanks were sterilized with 70% ethanol, and the infected catheter segments were excised into 1 mL of phosphate buffered saline pH 7.2 (1×PBS). Bacteria that adhered to the internal surfaces of explanted catheter segments were mechanically disrupted (aseptically) by repeated draws/dispenses of 200 μL 1×PBS from a micropipette tip inserted into catheter lumens, followed by 5 min vortexing at high speed. Explanted samples were then snap frozen in dry ice/ethanol and stored at −80° C. until CFU counts were determined.
(§7) CFU count determination: the catheters were rapidly thawed in a 37° C. water bath, and vortexed for 2 minutes, serially diluted and spotted (8 μL) on agar plates. Viable cell counts for efficacy were determined by plating on drug free Charcoal or MHII agar plates. […] The detection limit for all CFU determinations was less than or equal to 2.09 log10 CFU/implant.
(§8) The counts were multiplied by the serial dilution factor. The resulting raw values were converted to log10 CFU for calculation of means and standard deviations.

[2] = tested on: quinolone-resistant Staphylococcus aureus CB1840 (norA^up); conditions: I 30 mg/kg, rifampicin+levofloxacin 20+25 mg/kg
[3] = tested on: quinolone-resistant Staphylococcus aureus CB1840 (norA^up); conditions: for log10 CFU reduction in bacterial counts: rebound regimen
Procedure: as §1, §2, §3, §4, §5, §6, §7, §8

[4] = tested on: S. aureus CB1406, CB1823, CB1840 and CB1857; conditions: rebound dosing regimen, mean over strains
Procedure: as §1, §2, §3, §4, §5, §6, §7, §8

[5] = tested on: quinolone-resistant Staphylococcus aureus CB1823 (parC^S80F); conditions: for log10 CFU reduction in bacterial counts: rebound regimen
Procedure: as §1, §2, §3, §4, §5, §6, §7, §8

[6] = tested on: Staphylococcus aureus CB1406 (wild type); conditions: for mean Log10 CFU/catheter / log10 CFU reduction in bacterial counts: CB1406; for log10 CFU reduction in bacterial counts: rebound regimen
Procedure: as §1, §2, §3, §4, §5, §6, §7, §8

[7] = tested on: quinolone-resistant Staphylococcus aureus CB1823 (parC^S80F); conditions: I 30 mg/kg, rifampicin+levofloxacin 20+25 mg/kg
[8] = 14-day treatment regimen, Day 7 (initiation of treatment)
[9] = rebound treatment regimen, Day 7 (initiation of treatment)
[10] = rebound treatment regimen, Day 14 (after 7 days of administration), IP bid, I 30 mg/kg, rifampicin+levofloxacin 20+25 mg/kg
[11] = rebound treatment regimen, Day 21 (7 days of rebound)
[12] = rebound treatment regimen, Day 28 (7 days of re-treatment)
[13] = 14-day treatment regimen, Day 21, IP bid
[14] = following additional 7 treatment days

What does the source list for `CO[C@H]1/C=C/O[C@@]2(C)Oc3c(C)c(O)c4c(O)c(c(/C=N/N5CCC(N(C)C6([C@@H]7CCN(c8c(F)cn9c(=O)c(C(=O)O)cc(C%10CC%10)c9c8C)C7)CC6)CC5)c(O)c4c3C2=O)NC(=O)/C(C)=C\C=C\[C@H](C)[C@H](O)[C@@H](C)[C@@H](O)[C@@H](C)[C@H](OC(C)=O)[C@@H]1C` [I]?
mean Log10 CFU/catheter [1, 8]: 6.81 Log10 CFU/catheter; mean Log10 CFU/catheter ([1]; 14-day treatment regimen, Day 21, IP bid, I 30 mg/kg, rifampicin+levofloxacin 20+25 mg/kg): 2.30 Log10 CFU/catheter; log10 CFU reduction in bacterial counts at the catheter site ([1]; 14 consecutive days bid, I 30 mg/kg, rifampicin+levofloxacin 20+25 mg/kg): 4.5 log10 CFU; log10 CFU reduction in bacterial counts ([1]; rebound regimen, following 7 days of treatment): 2.5 log10 CFU; mean Log10 CFU/catheter [1, 9]: 6.81 Log10 CFU/catheter; mean Log10 CFU/catheter [1, 10]: 4.26 Log10 CFU/catheter; mean Log10 CFU/catheter [1, 11]: 2.40 Log10 CFU/catheter; mean Log10 CFU/catheter [1, 12]: 2.45 Log10 CFU/catheter; mean Log10 CFU/catheter [2, 13]: 2.10 Log10 CFU/catheter; log10 CFU reduction in bacterial counts at the catheter site ([2]; 14 consecutive days bid): 4.9 log10 CFU; mean Log10 CFU/catheter [3, 8]: 7.01 Log10 CFU/catheter; log10 CFU reduction in bacterial counts ([3]; following 7 days of treatment): 2.4 log10 CFU; log10 CFU reduction in bacterial counts ([3]; following 7 days untreated): 4.9 log10 CFU; log10 CFU reduction in bacterial counts [3, 14]: 4.9 log10 CFU; mean Log10 CFU/catheter [3, 9]: 7.01 Log10 CFU/catheter; mean Log10 CFU/catheter [3, 10]: 4.61 Log10 CFU/catheter; mean Log10 CFU/catheter [3, 11]: 2.10 Log10 CFU/catheter; mean Log10 CFU/catheter [3, 12]: 2.10 Log10 CFU/catheter; Mean Log10 CFU reduction ([4]; following 7 days of re-treatment): 4.6 Log10 CFU; Mean Log10 CFU reduction ([4]; following 7 days of treatment): 2.4 Log10 CFU; Mean Log10 CFU reduction ([4]; following 7 days untreated (rebound)): 4.6 Log10 CFU; mean Log10 CFU/catheter [5, 8]: 7.03 Log10 CFU/catheter; log10 CFU reduction in bacterial counts ([5]; following 7 days of treatment): 2.4 log10 CFU; log10 CFU reduction in bacterial counts ([5]; following 7 days untreated): 4.4 log10 CFU; log10 CFU reduction in bacterial counts [5, 14]: 4.5 log10 CFU; mean Log10 CFU/catheter [5, 9]: 7.03 Log10 CFU/catheter; mean Log10 CFU/catheter [5, 10]: 4.61 Log10 CFU/catheter; mean Log10 CFU/catheter [5, 11]: 2.61 Log10 CFU/catheter; mean Log10 CFU/catheter [5, 12]: 2.70 Log10 CFU/catheter; mean Log10 CFU/catheter ([6]; 14-day treatment regimen, Day 7 (before treatment)): 6.82 Log10 CFU/catheter; log10 CFU reduction in bacterial counts ([6]; following 7 days of treatment): 2.1 log10 CFU; log10 CFU reduction in bacterial counts ([6]; following 7 days untreated): 4.6 log10 CFU; log10 CFU reduction in bacterial counts [6, 14]: 4.7 log10 CFU; mean Log10 CFU/catheter ([6]; rebound treatment regimen, Day 7 (before treatment)): 6.82 Log10 CFU/catheter; mean Log10 CFU/catheter [6, 11]: 2.20 Log10 CFU/catheter; mean Log10 CFU/catheter [6, 12]: 2.10 Log10 CFU/catheter; log reduction in bacterial colony counts at the catheter site ([6]; mouse, in vivo): 4.6 log; mean Log10 CFU/catheter [7, 13]: 2.70 Log10 CFU/catheter; log reduction in bacterial counts at the catheter site ([7]; 14 consecutive days bid): 4.3 log
